Patent publication US20240208972A1, “LRRK2 INHIBITORS AND USES THEREOF” (NEURON23, INC., priority 2022, published 2024)

Tests used:
[1] = Brain penetration (Kp,uu) in CD-1 mice, with plasma and brain tissue binding by equilibrium dialysis; format: in vivo; conditions: mouse, brain and plasma (unbound), male CD-1 mice, single IV bolus 1 mg/kg
In short: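 Male CD-1 mice received a single 1 mg/kg IV tail-vein bolus in 5% DMSO/5% solutol/20% PEG300/70% water; plasma and brain homogenate were measured by LC-MS/MS. Free fractions came from equilibrium dialysis against PBS at 37 °C for 6 h, brain homogenate spiked at 1 μM final. Kp,uu = (brain % free × brain conc)/(plasma % free × plasma conc).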

Caco-2 cells = experiment: Caco-2 bidirectional permeability; format: in vitro ADME; conditions: for Caco-2 A2B (10^−6 cm/s): A to B; for Caco-2 A2B (10^−6 cm/s) / Caco-2 B2A (10^−6 cm/s): HBSS pH 7.4, 2 hours; for Caco-2 B2A (10^−6 cm/s): B to A; for Caco-2 ER: Efflux Ratio=Papp (BA)/Papp (AB)
In short: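 Caco-2 monolayers grown 21–28 days on PET inserts were run in duplicate in HBSS with 10 mM HEPES, pH 7.4. Compound was tested in both directions at […] for 2 h at 37 °C and quantified by LC-MS/MS. Papp, % recovery and efflux ratio (B-A/A-B) were calculated, with lucifer yellow checking monolayer integrity.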

Row | Structure (SMILES) | Kp uu [1] | Caco-2 A2B (10^−6 cm/s) (Caco-2 cells) | Caco-2 B2A (10^−6 cm/s) (Caco-2 cells) | Caco-2 ER (Caco-2 cells)
1 | Cc1n[nH]c2c1N=C(c1c(F)cccc1F)Nc1ccc(N3CCOCC3)cc1-2 [Example 29, 4-(5-(2,6-difluorophenyl)-3-methyl-1,6-dihydrobenzo[d]pyrazolo[3,4-f][1,3]diazepin-9-yl)morpholine] | > 0.4 | H (H (High permeability)”: A2B (B2A)>5) | H (H (High permeability)”: A2B (B2A)>5) | N (N (Non-substrate)”: ER<2.5)
2 | Cc1n[nH]c2c1N=C(c1c(F)cccc1F)Nc1c-2cc(N2CCO[C@@H](C)C2)nc1C [Example 40, (S)-4-(5-(2,6-difluorophenyl)-3,7-dimethyl-1,6-dihydropyrazolo[4,3-d]pyrido[4,3-f][1,3]diazepin-9-yl)-2-methylmorpholine] | < 0.2 | H (H (High permeability)”: A2B (B2A)>5) | H (H (High permeability)”: A2B (B2A)>5) | N (N (Non-substrate)”: ER<2.5)
3 | Cc1n[nH]c2c1N=C(c1c(F)cccc1F)Nc1ccc(N3CCN(CCF)CC3)cc1-2 [Example 25, 5-(2,6-difluorophenyl)-9-[4-(2-fluoroethyl)piperazin-1-yl]-3-methyl-1,6-dihydropyrazolo[4,3-d][1,3]benzodiazepine] | 0.2 to 0.4 | H (H (High permeability)”: A2B (B2A)>5) | H (H (High permeability)”: A2B (B2A)>5) | L (L (Likely)”: ER>2.5)
